A short description of series [1]: aggregation behavior in solution by Dynamic Light Scattering (DLS). Format: physicochemical. The settings on record: TGF-β1 mimetic peptides in solution.
The test system of another series is NFkB pathway. As to the kind of experiment: NFkB expression in Jurkat cells, luciferase (TGF-β1 mimetic peptides). Format: cell-based, human. The settings on record: peptide pretreatment 1 hour, then TNF-α, tested at 0.1-100 μM. The method, then:
Two different cell treatments were performed using Jurkat cells to analyze NFkB expression after 12, 24 and 48 hours. In the first test, Jurkat cells were treated only with peptides (no pathway activating molecule) at different concentrations to analyze the ability of each peptide to induce NFkB expression (Figure not shown). None of the tested concentrations induced any type of pathway activation.
The assay was carried out in such a way that a total of 3×10^5 cells/well ([…]) was pretreated with […] of a composition comprising one of the synthetic peptides in concentrations of 100 μM, 10 μM, 1 μM, and 0.1 μM for 1 hour at 37° C. in 5% CO2, followed by stimulation with TNF-α (200 ng/ml) for 12, 24 and 48 hours. The same stimuli were applied to cells pretreated with TNF-α (200 ng/ml) for 1 hour at 37° C. in 5% CO2 followed by stimulation with peptides at 100 μM, 10 μM, 1 μM and 0.1 μM for 12, 24 and 48 hours. Then, […] of supernatant was transferred to a white plate and Quanti-Luc reagent was used to measure the luciferase product. As a control, the peptides were tested at the same concentrations, without any pathway activating molecule, to investigate whether they could activate the NFkB pathway. TNF-α (200 ng/mL) was used as a positive control and rIL-10 (0.4 ng/mL) as a negative control. […].

Series [2] has as its system TGF-β1 receptor on A549 cells. In words: ELISA on cells of the A549 line using anti-TGF-β1 antibody. Format: binding, human. The protocol: The peptides described in this patent application were selected using the Phage Display (PD) methodology. The selection was performed by evaluating the ability of said peptides to recognize the TGF-β1 receptor on A549 cells, using an ELISA assay. MaxiSorp 96-well microtiter plates were coated with 1×10^6 cells diluted in PBS and incubated overnight at 4° C. Cells were blocked with 3% PBS-BSA for 1 h at 37° C., washed once with PBS and incubated with […] of each TGF-β1 mimetic peptide or 5 ng/ml of recombinant TGF-β1 for 1 h at 37° C. After washing, the plate was incubated for 1 h at 37° C. with anti-TGF-β1 antibody. The plate was washed and incubated with HRP-labeled anti-human IgG antibody for 1 h at 37° C. After washing, TMB substrate solution was added to the plate; the reaction was stopped by adding the 2N H2SO4 solution and read at 492 nm in a microplate reader.
To investigate whether the synthesized peptides could bind to cell receptors, an ELISA assay was performed on cells of the A549 line using commercial anti-TGF-β1 antibody.

The test system of a further series is TLR4 pathway. As to the kind of experiment: HEK-Blue hTLR4 reporter cells, SEAP production (TGF-β1 mimetic peptides). Format: cell-based. The settings on record: peptide pretreatment 1 hour, then LPS 100 ng/mL; 12 hours. The method, then: Similar to the treatment using Jurkat cells, peptides in compositions with different concentrations were also tested in HEK cells to investigate their ability to interfere with the TLR4 pathway.
To ensure that the peptides could not induce any activation when tested alone (no pathway activation molecule) only the peptides were added into the cell line and SEAP production was measured after 12 hours of treatment (Figure not shown).
The assay was performed using HEK-Blue hTLR4 reporter cells (InvivoGen) to investigate the action of peptides in the TLR4 pathway. A total of 2.3×10^4 cells/well ([…]) was pretreated with […] of composition comprising at least one of the synthetic peptides at concentrations of 100 μM, 10 μM, 1 μM, and 0.1 μM for 1 hour at 37° C. ° C. in 5% CO2 followed by LPS stimulation at 100 ng/mL for 12 hours. The same stimuli were applied to cells pretreated with LPS at 100 ng/ml for 1 hour at 37° C. in 5% CO2, followed by stimuli with peptides at 100 μM, 10 μM, 1 μM and 0.1 μM for 12 hours. Stimuli were added in Quanti-blue medium and SEAP production was measured at 655 nm. As a control, peptides at the same concentrations were tested alone to investigate whether they could activate the TLR4 pathway and LPS was used as a positive control.

Series [3] deals with TFGβRII/SMAD-dependent pathway. In words: HEK-blue-TGFβ reporter cells, SEAP production. The settings on record: 12 hours; tested at 0.1, 1, 10 and 100 μM. Format: cell-based. The method, then:
After 12 hours of stimulation (FIG. 4A), all peptides were able to bind to the receptor.
The assay was performed in such a way that approximately 2.5×10^4 cells/well (100 μL) were treated with 100 μL of all synthetic peptides at different concentrations (100 μM, 10 μM, 1 μM and 0.1 μM) while rTGF-β1 ([…]) at 100 ng/ml was used as a positive control. After incubating the cells for 12, 24 and 48 hours at 37° C. in 5% CO2, […] of supernatant was transferred to a Greiner plate to which […] of Quanti-blue solution was added. The plate was incubated for 1 hour at 37° C. in 5% CO2 and the production of SEAP (secreted alkaline phosphatase) was detected at 655 nm. All tests were performed in triplicate.

In series [4] the test system is rat basophilic leukemia cells transfected with the human FIϵRI IgE receptor (hRBL). In words: IgE-mediated release in hRBL cells sensitized with serum from patients allergic to birch pollen, Bet v 1. Format: cell-based. The settings on record: Pep 1-IL-10 at 1 μM; serum from seven birch pollen allergic donors. The method, then:
The effect of IL-10 mimetic peptides on IgE-mediated release was examined using rat basophilic leukemia cells transfected with the human FIϵRI IgE receptor (hRBL). As an example, we selected as an example Pep 1-IL-10 to show the data obtained. The hRBL cells were sensitized with serum from seven patients allergic to birch pollen. Cells were stimulated with the antigen and its interaction with immobilized IgEs caused a release of b-hexosaminidase.
When cells were treated with a composition comprising Pep 1-IL-10 at 1 μM (FIG. 21A) or rIL10 (FIG. 21B), the amount of Bet v 1 needed to induce the same amount of degranulation was higher when compared to cells treated only with Bet vl (P<0.05). Amount of rBet v 1 (ng/mL) required to induce half the release of b-hexosaminidase using serum from seven birch pollen allergic donors after treatment with Pep 1-IL-10 (A) (P<0.05) and rIL10 (B)*P<0.05.

In the case of “Pep 7-TGF-β1: synthetic peptide with affinity to the TGF-β receptor, SEQ ID N 07, free of disulfide bridges (HASTIASTLHSGGGS)”, in series [1], the hydrodynamic radius came to 2.94 nm. Besides, the “concentrations with statistically significant decrease of NFKB pathway activation vs TNF-α control” value in the series on NFkB pathway (24 hours) was 1 µM and 100 µM; with NFkB pathway (48 hours) it was 1 µM. Moreover, in series [2], the “recognition of receptor-bound peptide by anti-TGF-β1 antibody compared to recombinant TGF-β1” value is listed as “recognized as statistically different”. Moreover, the “concentrations with statistically significant reduction of TLR4 pathway activation” value with TLR4 pathway is 0.1 μM; 1 μM and 10 μM. Moreover, in series [3], the “concentrations with statistically significant activation of the SMAD-dependent pathway (SEAP)” value was 0.1 μM: 1 μM; 10 μM and 100 μM.

“Pep 5-TGF-β1: synthetic peptide with affinity to the TGF-β receptor, SEQ ID N 05, free of disulfide bridges (HASFLPASGLSGGGS)”: the “concentrations with statistically significant decrease of NFKB pathway activation vs TNF-α control” value in the series with NFkB pathway (24 hours) is 0.1 μM; 1 μM and 100 μM; in the series on NFkB pathway (48 hours), 0.1 μM; 1 μM and 10 μM. In addition, the “recognition of receptor-bound peptide by anti-TGF-β1 antibody compared to recombinant TGF-β1” value in series [2] was “recognized as statistically different”. Besides, in the series with TLR4 pathway, the “concentrations with statistically significant reduction of TLR4 pathway activation” value is 1 µM and 10 µM. Moreover, the “concentrations with statistically significant activation of the SMAD-dependent pathway (SEAP)” value in series [3] was 0.1 μM, 1 μM, 10 μM and 100 μM.

B1: rIL10: recombinant Interleukin-10, used as control (protein, UniProt P22301 19-178, looked up)
Interleukin-10: SPGQGTQSENSCTHFPGNLPNMLRDLRDAFSRVKTFFQMKDQLDNLLLKESLLEDFKGYLGCQALSEMIQFYLEEVMPQAENQDPDIKAHVNSLGENLKTLRLRLRRCHRFLPCENKSKAVEQVKNAFNKLQEKGIYKAMSEFDIFINYIEAYMTMKIRN
As to B1, the “amount of Bet v 1 needed to induce the same amount of degranulation (half the release of b-hexosaminidase) vs Bet v 1 only” value in series [4] is reported as “higher”.

Values taken from US20220193185A1, “COMBINATION OF SYNTHETIC PEPTIDES WITH AFFINITY TO THE TGF-ß RECEPTOR AND WITH AFFINITY TO THE IL-10 RECEPTOR, PHARMACEUTICAL COMPOSITION AND THEIR USE AS IMMUNOMODULATORS IN THE TREATMENT OF AUTOIMMUNE, INFLAMMATORY OR ALLERGIC DISEASES” (Universidade Federal de Uberlândia, priority 2019, published 2022).
